How the values were obtained:
pigweed = test: Test B pre/postemergence pigweed; assay type: in vivo, Amaranthus retroflexus
Summary of the method: (§1)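 Herbicidal effect was estimated by eye on a ten-point control scale after plants spent twelve to sixteen days in a greenhouse following soil or foliar treatment. Foliar sprays targeted plants at one to four leaves; all doses were formulated in a non-phytotoxic solvent with surfactant.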

sugar beet = test: Test B pre/postemergence sugar beet; assay type: in vivo, Beta vulgaris
Summary of the method: as §1

morningglory = test: Test B pre/postemergence morningglory; assay type: in vivo, Ipomoea hederacea
Summary of the method: as §1

duck salad = test: Test B flood test duck salad; assay type: in vivo, Heteranthera limosa
Summary of the method: (§2)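 Plants were grown to the 2-leaf stage before treatment with test chemical, then held in a greenhouse for twelve to sixteen days. Injury was visually rated against untreated controls on a 0–10 scale, where 0 is no effect and 10 is complete control.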

blackgrass = test: Test B pre/postemergence blackgrass; assay type: in vivo, Alopecurus myosuroides
Summary of the method: as §1

velvetleaf = test: Test B pre/postemergence velvetleaf; assay type: in vivo, Abutilon theophrasti
Summary of the method: as §1

giant foxtail = test: Test B pre/postemergence giant foxtail; assay type: in vivo, Setaria faberii
Summary of the method: as §1

wheat = test: Test B pre/postemergence wheat; assay type: in vivo, Triticum aestivum
Summary of the method: as §1

bamyardgrass = test: Test B flood test barnyardgrass; assay type: in vivo, Echinochloa crus-galli
Summary of the method: as §2

crabgrass = test: Test B pre/postemergence crabgrass; assay type: in vivo, Digitaria sanguinalis
Summary of the method: as §1

cocklebur = test: Test B pre/postemergence cocklebur; assay type: in vivo, Xanthium strumarium
Summary of the method: as §1

wild oat = test: Test B pre/postemergence wild oat; assay type: in vivo, Avena fatua
Summary of the method: as §1

bedstraw = test: Test B pre/postemergence bedstraw; assay type: in vivo, Galium aparine
Summary of the method: as §1

rice = test: Test B flood test rice; assay type: in vivo, Oryza sativa
Summary of the method: as §2

surinam grass = test: Test B pre/postemergence surinam grass; assay type: in vivo, Brachiaria decumbens
Summary of the method: as §1

purple nutsedge = test: Test B pre/postemergence purple nutsedge; assay type: in vivo, Cyperus rotundus
Summary of the method: as §1

[1] = Postemergence, Rate 250 g/ha, scale 0 to 10, 0 no effect, 10 complete control
[2] = Postemergence, Rate 1000 g/ha, scale 0 to 10 (0 no effect, 10 complete control)
[3] = Preemergence, Rate 125 g/ha, scale 0 to 10 (0 no effect, 10 complete control)
[4] = Preemergence, Rate 250 g/ha, scale of 0 to 10 where 0 is no effect and 10 is complete control
[5] = Preemergence, Rate 500 g/ha, scale 0 (no effect) to 10 (complete control)
[6] = Rate 125 g/ha, Postemergence, scale 0 to 10, 0 no effect, 10 complete control
[7] = Rate 500 g/ha, Postemergence, 0 to 10 scale (0 no effect, 10 complete control)
[8] = Rate 1000 g/ha, Preemergence, scale 0 to 10 (0 no effect, 10 complete control)
[9] = Rate 125 g/ha, Postemergence section (flood test species), scale 0 to 10, 0 no effect, 10 complete control
[10] = Rate 500 g/ha, Postemergence section of Table B, 0 to 10 scale (0 no effect, 10 complete control)
[11] = flood test, listed under Postemergence, Rate 250 g/ha, scale 0 to 10, 0 no effect, 10 complete control

## COc1ccc(-n2c(=O)on(C(=O)N(c3ccc(F)cc3)C(C)C)c2=O)cc1 [Compound 5]
pigweed; [1]
  Redroot pigweed plant response rating: 7
pigweed; [2]
  Redroot pigweed plant response rating: 8
pigweed; [3]
  Plant response rating, Redroot pigweed: 6
pigweed; [4]
  Plant response rating, Redroot pigweed: 7
pigweed; [5]
  Redroot pigweed plant response rating: 7
pigweed; [6]
  Redroot pigweed plant response rating: 7
pigweed; [7]
  Redroot pigweed plant response rating: 7
pigweed; [8]
  Plant response rating, Redroot pigweed: 10
Sugar beet; [1]
  Sugarbeets plant response rating: 4
Sugar beet; [2]
  Sugarbeets plant response rating: 7
Sugar beet; [3]
  Plant response rating, Sugarbeets: 0
Sugar beet; [4]
  Plant response rating, Sugarbeets: 0
Sugar beet; [5]
  Sugarbeets plant response rating: 0
Sugar beet; [6]
  Sugarbeets plant response rating: 3
Sugar beet; [8]
  Plant response rating, Sugarbeets: 0
morningglory; [1]
  Morningglory plant response rating: 3
morningglory; [2]
  Morningglory plant response rating: 9
morningglory; [3]
  Plant response rating, Morningglory: 0
morningglory; [4]
  Plant response rating, Morningglory: 0
morningglory; [5]
  Morningglory plant response rating: 0
morningglory; [6]
  Morningglory plant response rating: 2
morningglory; [8]
  Plant response rating, Morningglory: 0
Duck salad; [2]
  Ducksalad plant response rating: 0
Duck salad; [9]
  Ducksalad plant response rating: 0
Duck salad; [10]
  Ducksalad plant response rating: 0
Duck salad; [11]
  Ducksalad plant response rating: 0
blackgrass; [1]
  Blackgrass plant response rating: 5
blackgrass; [2]
  Blackgrass plant response rating: 8
blackgrass; [3]
  Plant response rating, Blackgrass: 3
blackgrass; [4]
  Plant response rating, Blackgrass: 3
blackgrass; [5]
  Blackgrass plant response rating: 5
blackgrass; [6]
  Blackgrass plant response rating: 4
blackgrass; [7]
  Blackgrass plant response rating: 4
blackgrass; [8]
  Plant response rating, Blackgrass: 8
velvetleaf; [1]
  Velvetleaf plant response rating: 5
velvetleaf; [2]
  Velvetleaf plant response rating: 7
velvetleaf; [3]
  Plant response rating, Velvetleaf: 0
velvetleaf; [4]
  Plant response rating, Velvetleaf: 0
velvetleaf; [5]
  Velvetleaf plant response rating: 0
velvetleaf; [6]
  Velvetleaf plant response rating: 4
velvetleaf; [8]
  Plant response rating, Velvetleaf: 0
Giant foxtail; [1]
  Giant foxtail plant response rating: 7
Giant foxtail; [2]
  Giant foxtail plant response rating: 7
Giant foxtail; [3]
  Plant response rating, Giant foxtail: 7
Giant foxtail; [4]
  Plant response rating, Giant foxtail: 8
Giant foxtail; [5]
  Giant foxtail plant response rating: 9
Giant foxtail; [6]
  Giant foxtail plant response rating: 1
Giant foxtail; [7]
  Giant foxtail plant response rating: 4
Giant foxtail; [8]
  Plant response rating, Giant foxtail: 10
wheat; [1]
  Wheat plant response rating: 1
wheat; [2]
  Wheat plant response rating: 2
wheat; [3]
  Plant response rating, Wheat: 0
wheat; [4]
  Plant response rating, Wheat: 0
wheat; [5]
  Wheat plant response rating: 0
wheat; [6]
  Wheat plant response rating: 0
wheat; [8]
  Plant response rating, Wheat: 0
bamyardgrass; [2]
  Barnyardgrass plant response rating: 4
bamyardgrass; [9]
  Barnyardgrass plant response rating: 0
bamyardgrass; [10]
  Barnyardgrass plant response rating: 2
bamyardgrass; [11]
  Barnyardgrass plant response rating: 0
crabgrass; [1]
  Crabgrass plant response rating: 6
crabgrass; [2]
  Crabgrass plant response rating: 6
crabgrass; [3]
  Plant response rating, Crabgrass: 3
crabgrass; [4]
  Plant response rating, Crabgrass: 3
crabgrass; [5]
  Crabgrass plant response rating: 6
crabgrass; [6]
  Crabgrass plant response rating: 3
crabgrass; [7]
  Crabgrass plant response rating: 6
crabgrass; [8]
  Plant response rating, Crabgrass: 7
cocklebur; [1]
  Cocklebur plant response rating: 5
cocklebur; [2]
  Cocklebur plant response rating: 8
cocklebur; [3]
  Plant response rating, Cocklebur: 0
cocklebur; [4]
  Plant response rating, Cocklebur: 0
cocklebur; [5]
  Cocklebur plant response rating: 0
cocklebur; [6]
  Cocklebur plant response rating: 5
cocklebur; [7]
  Cocklebur plant response rating: 5
cocklebur; [8]
  Plant response rating, Cocklebur: 0
Wild oat; [1]
  Wild oats plant response rating: 1
Wild oat; [2]
  Wild oats plant response rating: 1
Wild oat; [3]
  Plant response rating, Wild oats: 0
Wild oat; [4]
  Plant response rating, Wild oats: 6
Wild oat; [5]
  Wild oats plant response rating: 6
Wild oat; [6]
  Wild oats plant response rating: 0
Wild oat; [8]
  Plant response rating, Wild oats: 6
bedstraw; [1]
  Bedstraw plant response rating: 4
bedstraw; [2]
  Bedstraw plant response rating: 4
bedstraw; [3]
  Plant response rating, Bedstraw: 0
bedstraw; [4]
  Plant response rating, Bedstraw: 0
bedstraw; [5]
  Bedstraw plant response rating: 0
bedstraw; [6]
  Bedstraw plant response rating: 3
bedstraw; [7]
  Bedstraw plant response rating: 4
bedstraw; [8]
  Plant response rating, Bedstraw: 0
rice; [2]
  Rice plant response rating: 0
rice; [9]
  Rice plant response rating: 0
rice; [10]
  Rice plant response rating: 0
rice; [11]
  Rice plant response rating: 0
Surinam grass; [1]
  B. signalgrass plant response rating: 0
Surinam grass; [2]
  B. signalgrass plant response rating: 4
Surinam grass; [3]
  Plant response rating, B. signalgrass: 3
Surinam grass; [4]
  Plant response rating, B. signalgrass: 3
Surinam grass; [5]
  B. signalgrass plant response rating: 3
Surinam grass; [6]
  B. signalgrass plant response rating: 0
Surinam grass; [7]
  B. signalgrass plant response rating: 0
Surinam grass; [8]
  Plant response rating, B. signalgrass: 8
Purple nutsedge; [1]
  Nutsedge plant response rating: 0
Purple nutsedge; [2]
  Nutsedge plant response rating: 0
Purple nutsedge; [3]
  Plant response rating, Nutsedge: 0
Purple nutsedge; [4]
  Plant response rating, Nutsedge: 0
Purple nutsedge; [5]
  Nutsedge plant response rating: 0
Purple nutsedge; [6]
  Nutsedge plant response rating: 0
Purple nutsedge; [7]
  Nutsedge plant response rating: 0
Purple nutsedge; [8]
  Plant response rating, Nutsedge: 0
